Here are results for eight molecules from publication PMC7180842, “Efficacy of Topical Treatment with (−)-Epigallocatechin Gallate, A Green Tea Catechin, in Mice with Cutaneous Leishmaniasis” (Molecules, 2020).

The subject of series [1] is promastigotes of L. (V.) braziliensis. On the set-up: method as in earlier work. The following applies: cited from earlier work.
The subject of series [2] is promastigotes of L. (L.) amazonensis. On the set-up: method as in earlier work. The following applies: cited from earlier work.
The subject of the next series is L. (V.) braziliensis. On the set-up: method as in PMID 24106750, PMID 22735546. The following applies: EGCG oral treatment, BALB/c mice; cited from earlier work.
Series [3] relates to intracellular amastigotes of L. (V.) braziliensis. On the set-up: method as in PMID 25144225. The conditions noted are these: infected macrophage cultures incubated at 37 °C; cited from earlier work.
The nature of series [4]: Macrophage cytotoxicity screening (MTT assay). The class given is cell-based. The following applies: human, THP1 cells differentiated to macrophages. As for the experimental part: The cytotoxicity of EGCG, EGC, GCG and GC was evaluated in a human monocytic cell line derived from an acute monocytic leukemia patient (THP1). The cells (3 x 10^4/150 µL) were first differentiated to macrophages with 10 ng/mL of phorbol myristate acetate for 24 h at 37 °C in a 5% CO2 95% air mixture. […] The controls were incubated with RPMI 1640 medium (Gibco, Grand Island, NY, USA). The viability of the macrophages was determined by the MTT assay (Nacalai tesque, Kyoto, Japan). Briefly, 50 μL of MTT (2 mg/mL) was added to each well and, after 4 h of incubation at 37 °C, the reaction was stopped dissolving the formazan crystals with 100 μL/well of dimethyl sulfoxide (DMSO). The relative amount of formazan produced by viable macrophages was determined using a spectrophotometer at 570 nm. The percentage of viable cells was calculated according to the formula: OD treated culture–OD blank x 100/OD control–OD blank as was described previously. The CC50 was calculated for each compound as the concentration of compound that reduces cell growth by 50%.
(§1) The GraphPad Prism 5.0 software (GraphPad Software Inc., San Diego, CA, USA) was employed to carry out calculations of the IC50 and CC50 values by a nonlinear regression. Multiple comparisons of lesions’ sizes between groups were made with a one-way analysis of variance (ANOVA) followed by Tukey test. The statistical analysis of the parasite burden data obtained by the limiting dilution assay was done using ELIDA software, which analyses data through the Poisson distribution and by the X^2 test. p < 0.05 was considered significant. The data are representative of two separate experiments in vivo.
(Tetrazolium assays rely on reduction of a dye to a coloured formazan, in cell work by metabolically active cells.)

For series [5], the system named is intracellular amastigotes of L. (L.) amazonensis. In words: In vitro antiamastigote activity in infected THP1-derived macrophages. The class given is cell-based, Leishmania (Leishmania) amazonensis. The conditions noted are these: for SI (selectivity index, ratio CC50 THP1/IC50 Leishmania): CC50 THP1/IC50 intracellular amastigotes; for SI (selectivity index, ratio CC50 THP1/IC50 Leishmania) / IC50: 48 h; for IC50: Leishmania amazonensis, Macrophage; for IC50 / Intracellular Amastigotes IC50: macrophages infected with L. (L.) amazonensis, 48 h of treatment, 34 °C. As for the experimental part:
THP1 cells (2 × 10^5/mL) were differentiated to macrophages with 10 ng/mL of phorbol myristate acetate and placed in Lab-Tek eight chamber slides for 24 h at 37 °C in a 5% CO2 95% air mixture. Adherent macrophages were infected with L. (L.) amazonensis at a ratio of four parasites per macrophage and incubated at 34 °C in a 5% CO2 95% air mixture during 24 h. After infection, the cells were washed with pre-warmed PBS to remove free parasites. A new medium with different concentrations of EGCG, EGC, GCG and GC (2.3 to 130 µg/mL) and Gl (2.5 to 80 µg Sb^v/mL) was added to each well. The positive controls were infected cells cultured under the presence of complete RPMI-1640 medium. The chambers were returned to the CO2 incubator for an additional 48 h at 34 °C, 5% CO2 [17]. The cells were stained with Diff Quik (Biopur S.R.L., Rosario, Argentina), and the results were expressed as the concentration of compound to inhibit the 50% of the growth (IC50) of the intracellular amastigotes.
as §1

For another series, the system named is L. (L.) donovani. On the set-up: method as in PMID 16569852. The following applies: cited from earlier work.
Series [6] relates to intracellular amastigotes of L. (L.) amazonensis. On the set-up: method as in PMID 22735546. The conditions noted are these: infected macrophage cultures incubated at 37 °C; cited from earlier work.
For another series, the system named is L. (L.) amazonensis. In words: In vivo cutaneous leishmaniasis model, infected ear dermis of BALB/c mice. The conditions noted are these: 18 days; for Parasite burden inhibition: once a day, six times a week, from week six postinfection, vs control group; for Lesion size: week 10, vs control group, p < 0.05. The protocol: Female BALB/c mice of six weeks old (weight, 20 to 25 g) were randomly separated into three groups of five animals and were inoculated by intradermal via in their right ear with 5 × 10^3 (20 µL) infective promastigotes of L. (L.) amazonensis (late log phase of growth). The animals were housed in groups of five in metal cages under a controlled environmental condition (12:12 h light/dark cycle and 23 °C room temperature) with food and water ad libitum.
At week six postinfection, mice received the treatments as follow: group 1, treated with EGCG in USP hydrophilic ointment (15%), group 2, treated with 120 mg Sb^v/kg/d of Gl administered by intraperitoneal route, and group 3, control mice (without treatment). EGCG was uniformly mixed in USP hydrophilic cream (Yoshida Pharmaceutical Co., Saitama, Japan) (15% w/w) and was topically applied (20 mg/lesion). EGCG ointment was prepared daily. The treatments were given during 18 days, once a day, six times a week, until the end of the treatments (9th week). The efficacy of treatments was determined by measuring the lesions’ sizes (mm^2) with a digital caliper weekly (150 mm; Digimess) and by quantifying the parasite burden with the limit dilution assay as was described previously.
as §1

[7] abbreviates: intraperitoneal 120 mg Sb^v/kg/d.

Values after ≈ are worked out from the molar mass of the structure shown.

As to `Oc1cc(O)c2c(c1)O[C@H](c1ccc(O)c(O)c1)[C@@H](O)C2` [(+)-catechin], the “Leishmanicidal activity / growth of promastigotes” value (“Leishmanicidal activity / growth” for short) in [1] and in [2] was “did not inhibit the growth” each time.
As for `Oc1cc(O)c2c(c1)O[C@H](c1ccc(O)c(O)c1)[C@H](O)C2` [(−)-epicatechin], the “Leishmanicidal activity / growth” value in series [1] and in series [2] was “did not inhibit the growth” each time.
As a reminder, the CC50 is the concentration giving 50% cytotoxicity. Higher therefore signals better tolerance by the cells. For orientation: IC50 means the concentration at which inhibition is half-maximal. Low values mean greater potency, high ones weaker potency. For the molecule `O=C(O[C@@H]1Cc2c(O)cc(O)cc2O[C@@H]1c1cc(O)c(O)c(O)c1)c1cc(O)c(O)c(O)c1` [EGCG, (−)-Epigallocatechin gallate], the Parasite burden inhibition in the series on L. (V.) braziliensis is reported as 92.1%; with L. (L.) amazonensis (topical 15% EGCG in USP hydrophilic ointment, 20 mg/lesion), 80.4%. Moreover, the “IC50 against intracellular amastigotes” value in series [3] is 1.57 µg/mL (≈ 3.43 µM); in [6] it was 0.74 µg/mL (≈ 1.61 µM). The “Leishmanicidal activity / growth” value in series [1] and in series [2] was “leishmanicidal activity” throughout. This molecule also displayed a CC50 at 48 h in series [4] of 88.9 ± 21.9 µg/mL (≈ 194 µM). The “SI (selectivity index, ratio CC50 THP1/IC50 Leishmania)” value in series [5] is 1.5; in [5] (listed as (−)-Epigallocatechin gallate) it was above 1. In addition, the IC50 in series [5] is below 59.6 µg/mL. Besides, in series [5], the “Intracellular Amastigotes IC50” value is recorded as 59.6 ± 9.3 µg/mL. The “IC50 against L. (L.) donovani” value in the series with L. (L.) donovani is given as 19.1 µg/mL (≈ 41.7 µM). Besides, in the series with L. (L.) amazonensis (topical 15% EGCG), the Lesion size result is “significant reduction of the lesion size”.
On to `Oc1cc(O)c2c(c1)O[C@@H](c1cc(O)c(O)c(O)c1)[C@H](O)C2` [GC, (−)-gallocatechin], for which the “Leishmanicidal activity / growth” value in series [1] was “leishmanicidal activity”. Also, half-maximal cytotoxicity in series [4] (CC50 at 48 h) was put at 115 ± 37.1 µg/mL (≈ 376 µM). For the same molecule, in series [5], the “SI (selectivity index, ratio CC50 THP1/IC50 Leishmania)” value amounted to 1.2 and the IC50 amounted to 93.5 ± 5 µg/mL (≈ 305 µM). Besides, in [2], the “Leishmanicidal activity / growth” value is “leishmanicidal activity”.
With `O=C(O[C@@H]1Cc2c(O)cc(O)cc2O[C@H]1c1cc(O)c(O)c(O)c1)c1cc(O)c(O)c(O)c1` [GCG, (−)-gallocatechin gallate], the “Leishmanicidal activity / growth” value in [1] is listed as “leishmanicidal activity”. Also, the CC50 at 48 h in series [4] was 94.9 ± 11.8 µg/mL (≈ 207 µM). Moreover, in series [5], the “SI (selectivity index, ratio CC50 THP1/IC50 Leishmania)” value worked out at 1.4 and the IC50 was determined as 67.5 ± 9.5 µg/mL (≈ 147 µM). The “IC50 against L. (L.) donovani” value with L. (L.) donovani is on record as 8.9 µg/mL (≈ 19.4 µM). Besides, in series [2], the “Leishmanicidal activity / growth” value is “leishmanicidal activity”.
As for `Oc1cc(O)c2c(c1)O[C@H](c1cc(O)c(O)c(O)c1)[C@H](O)C2` [EGC, (−)-epigallocatechin], the “Leishmanicidal activity / growth” value in series [1] is reported as “leishmanicidal activity”. The molecule also showed a 50% cytotoxic concentration (CC50) at 48 h in [4] of 121 ± 20 µg/mL (≈ 394 µM). Besides, in series [5], the “SI (selectivity index, ratio CC50 THP1/IC50 Leishmania)” value is reported as at least 2.7; the IC50 was below 59.6 µg/mL; the “Intracellular Amastigotes IC50” value is at least 44.3 µg/mL. Moreover, the “SI (selectivity index, ratio CC50 THP1/IC50 Leishmania)” value in series [5] (listed as (−)-epigallocatechin) is on record as above 1. Moreover, in series [2], the “Leishmanicidal activity / growth” value is on record as “leishmanicidal activity”.
`O=C(O[C@@H]1Cc2c(O)cc(O)cc2O[C@H]1c1ccc(O)c(O)c1)c1cc(O)c(O)c(O)c1` [(−)-catechin gallate]: the “Leishmanicidal activity / growth” value in [1] and in series [2] was “did not inhibit the growth” in each case.
Turning to “Meglumine antimoniate [reference compound]”, in the series on L. (L.) amazonensis (setting [7]), the Parasite burden inhibition is reported as 85.1% and the Lesion size result is listed as “reduced the lesion size”.
